molecular target: full length MPS1 (Homo sapiens (Human), UniProt P33981); assay: Measurement of inhibition of MPS1 kinase (Caliper EZ reader, fluorescent labelled peptide H236); format: biochemical; settings: not given
Protocol: The reaction was carried out for 60 min at room temperature and stopped by the addition of buffer (10 μl) containing 20 mM EDTA, 0.05% (v/v) Brij-35, in 0.1M HEPES-buffered saline (Free acid, Sigma, UK). The plate was read on a Caliper EZ reader II (Caliper Life Sciences).
The reader provides a Software package (‘Reviewer’) which converts the peak heights into % conversion by measuring both product and substrate peak and also allows selection of control well which represent 0% and 100% inhibition respectively. The % inhibition of the compounds is calculated relative to the means of selected control wells. IC50s are determined by testing the compounds at a range of concentrations from 0.25 nM-100 μM. The % inhibitions at each concentration are then fitted to a 4 parameter logistic fit: y=(a+((b−a)/(1+((c/x^d)))) where a=asym min, b=asym max, c=IC50 and d=hill coefficient

full length MPS1, sequence (P33981 whole entry): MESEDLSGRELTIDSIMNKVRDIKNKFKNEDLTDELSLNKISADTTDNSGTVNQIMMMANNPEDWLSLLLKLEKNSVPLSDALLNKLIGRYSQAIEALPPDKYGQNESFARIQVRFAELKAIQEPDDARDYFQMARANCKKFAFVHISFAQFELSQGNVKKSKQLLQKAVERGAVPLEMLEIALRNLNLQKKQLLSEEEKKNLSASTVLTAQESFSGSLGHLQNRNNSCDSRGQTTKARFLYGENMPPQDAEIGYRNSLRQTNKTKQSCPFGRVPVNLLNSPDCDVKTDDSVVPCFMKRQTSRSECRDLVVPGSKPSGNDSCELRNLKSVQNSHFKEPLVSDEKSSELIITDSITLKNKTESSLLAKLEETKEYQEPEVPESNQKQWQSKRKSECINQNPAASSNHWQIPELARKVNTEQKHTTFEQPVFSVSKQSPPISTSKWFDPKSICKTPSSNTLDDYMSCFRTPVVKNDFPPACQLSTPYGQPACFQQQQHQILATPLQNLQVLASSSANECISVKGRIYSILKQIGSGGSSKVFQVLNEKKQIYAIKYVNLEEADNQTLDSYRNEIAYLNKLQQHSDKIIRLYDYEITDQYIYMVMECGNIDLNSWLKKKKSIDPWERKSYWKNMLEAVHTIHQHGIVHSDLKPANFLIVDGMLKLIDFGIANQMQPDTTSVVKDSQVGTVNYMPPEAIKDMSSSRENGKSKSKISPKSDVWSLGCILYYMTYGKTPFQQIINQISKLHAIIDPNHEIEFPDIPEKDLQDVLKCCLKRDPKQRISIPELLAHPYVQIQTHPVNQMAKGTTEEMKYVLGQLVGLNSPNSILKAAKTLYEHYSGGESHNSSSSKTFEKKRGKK

IC50 [M]	SMILES
2.8e-08	COCCn1cc(-c2ccc3cnc(Nc4ccc(-c5cnc(CO)n5C)cc4OC)cc3c2)cn1 [Example 25, (5-(3-Methoxy-4-((6-(1-(2-methoxyethyl)-1H-pyrazol-4-yl)isoquinolin-3-yl)amino)phenyl)-1-methyl-1H-imidazol-2-yl)methanol]

same assay, conditions: full length MPS1 12.5 nM or 3 nM, peptide H236 5 μM, ATP 10 μM, 60 min at room temperature

SMILES	IC50 [M]
COc1cc(C(=O)N2CCN(C)CC2)ccc1Nc1cc2cc(-c3cnn(CC(C)(C)O)c3)ccc2cn1 [Example 66]	2e-09
CCOc1cc(-c2nncn2C)ccc1Nc1cc2nc(-c3cnn(CC(C)(C)O)c3)ccc2cn1 [Example 103, 1-(4-(7-(2-Ethoxy-4-(4-methyl-4H-1,2,4-triazol-3-yl)phenylamino)-1,6-naphthyridin-2-yl)-1H-pyrazol-1-yl)-2-methylpropan-2-ol]	1e-09
COc1cc(-c2cnn(C)c2C)ccc1Nc1cc2cc(-c3cnn(CC(C)(C)O)c3)ccc2cn1 [Example 53, 1-(4-(3-(4-(1,5-Dimethyl-1H-pyrazol-4-yl)-2-methoxyphenylamino)isoquinolin-6-yl)-1H-pyrazol-1-yl)-2-methylpropan-2-ol]	4e-09
COc1cc(-c2cncn2C)ccc1Nc1cc2cc(-c3cnn(C)c3)ccc2cn1 [Example 21, N-(2-methoxy-4-(1-methyl-1H-imidazol-5-yl)phenyl)-6-(1-methyl-1H-pyrazol-4-yl)isoquinolin-3-amine]	3e-09
COc1cc(F)ccc1Nc1cc2cc(-c3cnn(CC(C)(C)O)c3)ccc2cn1 [Example 54, 1-(4-(3-(4-Fluoro-2-methoxyphenylamino)isoquinolin-6-yl)-1H-pyrazol-1-yl)-2-methylpropan-2-ol]	6.5e-08
COc1cc(C(=O)N2CC(OC)C2)ccc1Nc1cc2cc(-c3cnn(C4CCCCC4O)c3)ccc2cn1 (racemic) [Example 85, (4-((6-(1-(2-Hydroxycyclohexyl)-1H-pyrazol-4-yl)isoquinolin-3-yl)amino)-3-methoxyphenyl)(3-methoxyazetidin-1-yl)methanone]	1.5e-08
COc1cc(-c2ncnn2C)ccc1Nc1cc2cc(-c3cnn(CC(C)(C)O)c3)ccc2cn1 [Example 64, 1-(4-(3-((2-Methoxy-4-(1-methyl-1H-1,2,4-triazol-5-yl)phenyl)amino)isoquinolin-6-yl)-1H-pyrazol-1-yl)-2-methylpropan-2-ol]	1e-09
COc1cc(-c2cnc(C)n2C)ccc1Nc1cc2cc(-c3cncc(C)c3)ccc2cn1 [Example 26, N-(4-(1,2-dimethyl-1H-imidazol-5-yl)-2-methoxyphenyl)-6-(5-methylpyridin-3-yl)isoquinolin-3-amine]	1e-08
COCC(Cn1cc(-c2ccc3cnc(Nc4ccc(C(=O)N5CC(OC)C5)cc4OC)cc3c2)cn1)OC (racemic) [Example 79, (4-((6-(1-(2,3-Dimethoxypropyl)-1H-pyrazol-4-yl)isoquinolin-3-yl)amino)-3-methoxyphenyl)(3-methoxyazetidin-1-yl)methanone]	9e-09
COc1cc(-c2cnc(C)n2C)ccc1Nc1cc2cc(-c3ccc(N(C)C(=O)OC(C)(C)C)nc3)ccc2cn1 [Example 12, tert-Butyl (5-(3-((4-(1,2-dimethyl-1H-imidazol-5-yl)-2-methoxyphenyl)amino)isoquinolin-6-yl)pyridin-2-yl)(methyl)carbamate]	7.13e-07
COc1cc(-c2cnc(C)n2CC(C)(C)O)ccc1Nc1cc2cc(-c3cnn(CC(C)(C)O)c3)ccc2cn1 [Example 69, 1-(5-(4-((6-(1-(2-Hydroxy-2-methylpropyl)-1H-pyrazol-4-yl)isoquinolin-3-yl)amino)-3-methoxy-phenyl)-2-methyl-1H-imidazol-1-yl)-2-methylpropan-2-ol]	2e-09
COc1cc(-c2cnc(C)n2C)ccc1Nc1cc2cc(-c3cn(C)nc3C)ccc2cn1 [Example 19, N-(4-(1,2-dimethyl-1H-imidazol-5-yl)-2-methoxyphenyl)-6-(1,3-dimethyl-1H-pyrazol-4-yl)isoquinolin-3-amine]	3e-08
COc1cc(-c2nnc3n2CCN(C(=O)OC(C)(C)C)C3)ccc1Nc1cc2cc(-c3cnn(CC(C)(C)O)c3)ccc2cn1 [Example 55, tert-Butyl 3-(4-(6-(1-(2-hydroxy-2-methylpropyl)-1H-pyrazol-4-yl)isoquinolin-3-ylamino)-3-methoxyphenyl)-5,6-dihydro-[1,2,4]triazolo[4,3-a]pyrazine-7(8H)-carboxylate]	3e-09
COc1cc(-c2cnc(C)n2C)ccc1Nc1cc2cc(-c3cnn(C(C)C)c3)ccc2cn1 [Example 15, N-(4-(1,2-dimethyl-1H-imidazol-5-yl)-2-methoxyphenyl)-6-(1-isopropyl-1H-pyrazol-4-yl)isoquinolin-3-amine]	3e-09
COCCn1c(-c2ccc(Nc3cc4cc(-c5cnn(CC(C)(C)O)c5)ccc4cn3)c(OC)c2)cnc1C [Example 35, 1-(4-(3-((2-Methoxy-4-(1-(2-methoxyethyl)-2-methyl-1H-imidazol-5-yl)phenyl)amino)-isoquinolin-6-yl)-1H-pyrazol-1-yl)-2-methylpropan-2-ol]	3e-09

The remaining lines, values ahead:

IC50 [M]	SMILES
4e-09	COc1cc(-c2cnc(C)n2C)ccc1Nc1cc2cc(-c3cnn(C4CCNCC4)c3)ccc2cn1 [Example 113, N-(4-(1,2-dimethyl-1H-imidazol-5-yl)-2-methoxyphenyl)-6-(1-(piperidin-4-yl)-1H-pyrazol-4-yl)isoquinolin-3-amine]
3e-09	COc1cc(-c2cnc3n2CCNC3)ccc1Nc1cc2cc(-c3cnn(CC(C)(C)O)c3)ccc2cn1 [Example 111, 1-(4-(3-((2-Methoxy-4-(5,6,7,8-tetrahydroimidazo[1,2-a]pyrazin-3-yl)phenyl)amino)-isoquinolin-6-yl)-1H-pyrazol-1-yl)-2-methylpropan-2-ol]
2e-09	CCOc1cc(-c2nncn2C)ccc1Nc1cc2cc(-c3cnn(CC(C)(C)O)c3)ccc2cn1 [Example 48, 1-(4-(3-(2-Ethoxy-4-(4-methyl-4H-1,2,4-triazol-3-yl)phenylamino)isoquinolin-6-yl)-1H-pyrazol-1-yl)-2-methylpropan-2-ol]
3e-09	COCCNC(=O)c1ccc(Nc2cc3cc(-c4cnn(CC(C)(C)O)c4)ccc3cn2)c(OC)c1 [Example 62, 4-((6-(1-(2-Hydroxy-2-methylpropyl)-1H-pyrazol-4-yl)isoquinolin-3-yl)amino)-3-methoxy-N-(2-methoxyethyl)benzamide]
3e-09	COc1cc(S(=O)(=O)N(C)C)ccc1Nc1cc2cc(-c3cnn(CC(C)(C)O)c3)ccc2cn1 [Example 80, 4-((6-(1-(2-Hydroxy-2-methylpropyl)-1H-pyrazol-4-yl)isoquinolin-3-yl)amino)-3-methoxy-N,N-dimethylbenzenesulfonamide]
2e-09	COc1cc(-c2cnc(C)n2C)ccc1Nc1cc2nc(-c3cnn(CC(C)(C)O)c3)ccc2cn1 [Example 102, 1-(4-(7-(4-(1,2-Dimethyl-1H-imidazol-5-yl)-2-methoxyphenylamino)-1,6-naphthyridin-2-yl)-1H-pyrazol-1-yl)-2-methylpropan-2-ol]
4e-09	COc1cc(-c2cnn(C)c2)ccc1Nc1cc2cc(-c3cnn(CC(C)(C)O)c3)ccc2cn1 [Example 52, 1-(4-(3-(2-Methoxy-4-(1-methyl-1H-pyrazol-4-yl)phenylamino)isoquinolin-6-yl)-1H-pyrazol-1-yl)-2-methylpropan-2-ol]

same assay, conditions: unit printed as (M); full length MPS1 12.5 nM or 3 nM, peptide H236 5 μM, ATP 10 μM, 60 min at room temperature

IC50 [M]	SMILES
1.6e-08	COc1cc(-c2cnc(C)n2C)ccc1Nc1ncc2ccc(-c3cnn(C)c3)nc2n1 [Example 115, N-(4-(1,2-dimethyl-1H-imidazol-5-yl)-2-methoxyphenyl)-7-(1-methyl-1H-pyrazol-4-yl)pyrido[2,3-d]pyrimidin-2-amine]

Reference: patent US9334286B2, “Pharmacologically active compounds” (Cancer Research Technology Limited, priority 2012, dated 2016)
